Test [1] relates to Echinochloa oryzicola. The test is described as follows: Herbicidal activity against Echinochloa oryzicola at 1 g a.i/a measured after 3 weeks. The format is functional, organism-based.
Test [2] deals with Echinochloa oryzicola. The test can be described thus: Herbicidal activity against Echinochloa oryzicola at 10 g a.i/a measured after 3 weeks. Format: functional, organism-based.

Active and inactive are the calls of the source. The rule behind the calls is not given here.

This passage reports Activity results from ChEMBL document CHEMBL3044948, “Synthesis and Herbicidal Activity of N-(1-Arylethenyl)-2-chloroacetamides” (Agric Biol Chem, 1991).

Consider `C=C(c1ccc(C#N)cc1)N(C(=O)CCl)c1c(C)cccc1C`, for which, in the test with Echinochloa oryzicola [1], the outcome was inactive. For the same compound, the outcome in the test on Echinochloa oryzicola [2] was Active.
Regarding `CC(C)=C(c1ccccc1)N(CC(C)C)C(=O)CCl`, the outcome in the test on Echinochloa oryzicola [2] was inactive.
On to `C=C(c1ccccc1)N(C(=O)CCl)c1c(Cl)cccc1Cl`, for which the result in the test on Echinochloa oryzicola [2] was inactive.
`CCN(C(=O)CCl)C(=C(C)C)c1ccccc1`: the outcome in the test on Echinochloa oryzicola [1] and with Echinochloa oryzicola [2] was Active.
`C=CCN(C(=O)CCl)C(=C(C)C)c1ccccc1`: the outcome with Echinochloa oryzicola [1] and with Echinochloa oryzicola [2] was Active.
Regarding `C=C(c1ccccc1)N(C(=O)CCl)c1ccccc1OC`, in the test on Echinochloa oryzicola [2], the result was Active.
Turning to `CCCCCCN(C(=O)CCl)C(=C(C)C)c1ccccc1`, the result in the test with Echinochloa oryzicola [1] and in the test on Echinochloa oryzicola [2] was Active.
With `C=C(c1ccc(OC)cc1)N(CCCCCC)C(=O)CCl`, in the test with Echinochloa oryzicola [2], the result was Active.
With `CC(C)=C(c1ccccc1)N(C(=O)CCl)c1c(C)cccc1C`, the result in the test with Echinochloa oryzicola [2] was inactive.
On the same count and under the same terms, the result for `C=C(c1ccc2ccccc2c1)N(C(=O)CCl)c1c(C)cccc1C` reads “inactive”.
On to `C/C=C(\c1ccccc1)N(CCCC)C(=O)CCl`, for which the result in the test on Echinochloa oryzicola [1] was inactive. The outcome in the test on Echinochloa oryzicola [2] was Active.
In the case of `C=C(c1ccccc1)N(C(=O)CCl)c1ccccc1`, the result in the test on Echinochloa oryzicola [2] was inactive.
Consider `CCC(C)N(C(=O)CCl)C(=C(C)C)c1ccccc1` (stereo not given), for which the outcome in the test with Echinochloa oryzicola [2] was inactive.
In the case of `C=C(c1ccccc1C)N(C(=O)CCl)c1c(C)cccc1C`, the outcome in the test on Echinochloa oryzicola [1] and in the test with Echinochloa oryzicola [2] was Active.
Take `C=C(c1cccn1C)N(C(=O)CCl)c1c(C)cccc1C`: the outcome in the test on Echinochloa oryzicola [2] was inactive.
The same measure, in the same setting: the result for `CC(C)=C(c1ccccc1)N(C(=O)CCl)C(C)C` reads “Active”.
For the compound `C=C(c1cccc(Br)c1)N(C(=O)CCl)c1c(C)cccc1C`, the result in the test with Echinochloa oryzicola [1] was inactive. The result in the test on Echinochloa oryzicola [2] was Active.
Regarding `C=C(c1ccccc1)N(C(=O)CCl)c1ccccc1C`, the outcome in the test on Echinochloa oryzicola [2] was inactive.
Consider `C=C(c1ccccc1)N(CC1CCCO1)C(=O)CCl` (stereo not given), for which, in the test on Echinochloa oryzicola [2], the result was Active.
With `C=C(c1ccc(Cl)c(Cl)c1)N(C(=O)CCl)c1c(C)cccc1C`, the outcome with Echinochloa oryzicola [2] was inactive.
As for `CC(C)=C(c1ccccc1)N(C(=O)CCl)c1ccccc1`, the result in the test on Echinochloa oryzicola [2] was inactive.
With `C=C(c1ccccc1)N(C(=O)CCl)c1cc(C)nn1C`, the outcome with Echinochloa oryzicola [2] was inactive.
For the compound `CC(C)=C(c1ccccc1)N(C)C(=O)CCl`, the outcome in the test with Echinochloa oryzicola [1] and in the test with Echinochloa oryzicola [2] was Active.
With `CC(C)=C(c1ccccc1)N(C(=O)CCl)c1ccc(Cl)cc1`, the outcome in the test on Echinochloa oryzicola [2] was Active.
As for `C=C(c1ccccc1)N(C(=O)CCl)c1c(CC)cccc1CC`, the outcome in the test with Echinochloa oryzicola [1] was inactive. Besides, in the test with Echinochloa oryzicola [2], the outcome was Active.
For the compound `C=C(c1ccccc1)N(C(=O)CCl)c1c(C)cccc1CC`, the outcome in the test on Echinochloa oryzicola [1] and in the test on Echinochloa oryzicola [2] was Active.
On to `C=C(c1ccc(Cl)cc1)N(C(=O)CCl)c1c(C)cccc1C`, for which the outcome in the test with Echinochloa oryzicola [1] was inactive. Further, the outcome in the test on Echinochloa oryzicola [2] was Active.
With `CCCN(C(=O)CCl)C(=C(C)C)c1ccccc1`, the result with Echinochloa oryzicola [1] was inactive. Moreover, the outcome in the test with Echinochloa oryzicola [2] was Active.
As for `C=C(c1ccccc1)N(C(=O)CCl)c1c(C)cccc1C`, the result with Echinochloa oryzicola [1] and in the test with Echinochloa oryzicola [2] was Active.
Consider `C=C(c1ccc(SC)s1)N(C(=O)CCl)c1c(C)cccc1C`, for which, in the test on Echinochloa oryzicola [2], the result was inactive.
As to `CC(C)=C(c1ccccc1)N(Cc1ccco1)C(=O)CCl`, the result in the test on Echinochloa oryzicola [1] and with Echinochloa oryzicola [2] was Active.
Consider `C=CCN(C(=O)CCl)/C(=C/C)c1ccccc1`, for which the result with Echinochloa oryzicola [1] was inactive. The result in the test with Echinochloa oryzicola [2] was Active.
On to `CC=C(c1ccccc1)N(C(=O)CCl)c1c(C)cccc1C` (mixture of isomers), for which the outcome in the test with Echinochloa oryzicola [1] was inactive. In the test with Echinochloa oryzicola [2], the result was Active.
Consider `C=C(c1ccccc1Cl)N(C(=O)CCl)c1c(C)cccc1C`, for which the outcome in the test on Echinochloa oryzicola [1] and with Echinochloa oryzicola [2] was Active.
Take `C=C(c1ccccc1)N(C(=O)CCl)c1cccc2ccccc12`: in the test with Echinochloa oryzicola [2], the result was inactive.
For the compound `C=C(c1cccc([N+](=O)[O-])c1)N(C(=O)CCl)c1c(C)cccc1C`, the result in the test on Echinochloa oryzicola [2] was Active.
For `CC(C)=C(c1ccccc1)N(Cc1ccccc1)C(=O)CCl`, the outcome in the test with Echinochloa oryzicola [1] and in the test with Echinochloa oryzicola [2] was Active.
In the case of `C=C(c1ccco1)N(C(=O)CCl)c1c(C)cccc1C`, the outcome in the test with Echinochloa oryzicola [2] was Active.
Consider `C=C(c1ccccc1OC)N(C(=O)CCl)c1c(C)cccc1C`, for which the result in the test with Echinochloa oryzicola [1] and in the test on Echinochloa oryzicola [2] was Active.
For the compound `C=C(c1ccc(OC)cc1)N(C(=O)CCl)c1c(C)cccc1C`, the outcome in the test with Echinochloa oryzicola [1] was inactive. Moreover, in the test with Echinochloa oryzicola [2], the result was Active.
